Among the data in the supplement of paper PMC10290057 are efficacy and AC50 cell viability values, retold here.

The subject of assay [1] is HCT116. Kind of assay: efficacy (fitted maximal change in viability relative to DMSO control); higher = less cytotoxic (negative = loss of viability). Particulars: 48 h.
Assay [2] deals with HCT116. Put plainly: AC50 cell viability (CellTiter-Glo); higher = less potent. Particulars: 48 h. A general note: ATP-based viability assays read luminescence as a measure of living cells.
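Throughout, for AC50 cell viability (CellTiter-Glo): HCT116 colorectal carcinoma cells screened at five concentrations per compound, luminescent viability scaled between DMSO wells and empty wells on each plate, curves fitted per compound.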
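Throughout, for efficacy (fitted maximal change in viability relative to DMSO control): Luminescence-based viability readout, five doses per compound, normalized against on-plate DMSO and empty-well controls, followed by dose-response curve fitting for every drug.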

As for `CC1(C)OC/2=C(\[C@H](NCC3=CC=CC=C3)[C@@H]1O)C(=O)C4=CC=CC=C4C2=O`, the efficacy in assay [1] was -96.8%. Further, in assay [2], the AC50 cell viability was 2.95 µM.
Consider `Cc1cc(-c2nc3cc(F)ccc3s2)ccc1NC(=O)[C@@H](N)CCCCN`, for which the efficacy in assay [1] is -93.6%. In assay [2], this compound had an AC50 cell viability of 7.42 µM.
For `Cc1ccc2nc(NCCN)c3ncc(C)n3c2c1` the same measures were -78.2% and 2.35 µM.
For the compound `Cc1n[nH]c2ccc(-c3cncc(OC[C@@H](N)Cc4ccccc4)c3)cc12`, the efficacy in assay [1] is -69.5%. Moreover, the AC50 cell viability in assay [2] worked out at 0.59 µM.
`COc1cc(Nc2cnc(C#N)c(O[C@H](C)CN(C)C)n2)ncc1-c1cnn(C)c1`: in assay [1], the efficacy is -121%. Also, the AC50 cell viability in assay [2] came to 11.8 µM.
For `C[C@@H](Oc1ccc2[nH]nc(/C=C/c3cnn(CCO)c3)c2c1)c1c(Cl)cncc1Cl` the same measures were -79.4% and 0.661 µM.
Regarding `NC(CSC(c1ccccc1)(c1ccccc1)c1ccccc1)C(=O)O` (stereo in doubt) [S-Trityl-L-cysteine], the efficacy in assay [1] was -53.6%. For the same compound, the AC50 cell viability in assay [2] was found to be 23.5 µM.
As to `Nc1nc(F)nc2c1ncn2[C@@H]1O[C@H](CO)[C@@H](O)[C@@H]1O` [2-Fluoroadenosine], the efficacy in assay [1] was -57.1%. Also, the AC50 cell viability in assay [2] came out at 9.34 µM.
For `COc1cc2c(cc1O)CC[C@@H]1[C@@H]2CC[C@]2(C)[C@@H](O)CC[C@@H]12` [2-Methoxyestradiol (2-MeOE2)] the same measures were -63.9% and 2.35 µM.
With `NC1=NC=CC2=C1N=C[N]2[C@@H]3\C=C(CO)/[C@@H](O)[C@H]3O` [3-Deazaneplanocin A], the efficacy in assay [1] was -55.4%. For the same compound, the AC50 cell viability in assay [2] came out at 0.59 µM.
Turning to `Cn1cc(-c2ccc([S+](=O)([O-])n3ccc(/C=C/C(=O)Nc4ccccc4N)c3)cc2)cn1` [4SC-202], in assay [1], the efficacy was -76.5%. In assay [2], this compound registered an AC50 cell viability of 1.48 µM.
In the case of `NC/1=N/C(=O)N(/C=N1)[C@@H]2O[C@H](CO)[C@@H](O)[C@H]2O` [5-Azacitidine], the efficacy in assay [1] was -82.6%. The AC50 cell viability in assay [2] came out at 5.9 µM.
For `CC(=O)O/N=C1/C(=C2\C(=O)Nc3cc(Br)ccc32)Nc2ccccc21` [6-Bromoindirubin-3'-acetoxime] the same measures were -92.3% and 10.5 µM.
Take `S=C1N\C=N/C2=C1[NH]C=N2` [6-mercaptopurine]: the efficacy in assay [1] is -101%. In addition, the AC50 cell viability in assay [2] amounted to 1.66 µM.
For `CN[C@@H]1C[C@H]2O[C@@](C)([C@@H]1OC)n1c3ccccc3c3c4c(c5c6ccccc6n2c5c31)C(=O)N[C@H]4O` [7-Hydroxystaurosporine], in assay [1], the efficacy is -92.5%. This compound also displayed an AC50 cell viability in assay [2] of 0.241 µM.
As for `CC[C@@]1(O)C(=O)OCC/2=C1/C=C3\N(CC4=CC5=CC(=CC=C5N=C34)O)C2=O` [10-hydroxycamptothecin], in assay [1], the efficacy was -79.9%. In assay [2], the AC50 cell viability stood at 0.105 µM.
On to `CCCCC(C)(C)[C@H](O)/C=C/[C@H]1[C@H](O)CC(=O)[C@@H]1C/C=C\CCCC(=O)O` [16,16-dimethyl PGE2], for which, in assay [1], the efficacy was -64.7%. This compound gave an AC50 cell viability in assay [2] of 20.9 µM.
As for `C=CCNC1=C2CC(C)CC(OC)C(O)C(C)/C=C(\C)C(OC(N)=O)C(OC)/C=C/C=C(\C)C(=O)NC(=CC1=O)C2=O` (centres undefined) [17-AAG (KOS953)], the efficacy in assay [1] is -60.5%. For the same compound, in assay [2], the AC50 cell viability was found to be 0.417 µM.
Consider `COC[C@H]1OC(=O)C2=COC3=C2[C@@]1(C)\C4=C(\[C@@H]5CC[C@H](O)[C@@]5(C)C[C@H]4OC(C)=O)C3=O` [17-hydroxy Wortmannin], for which, in assay [1], the efficacy is -59.9%. The same compound came in with an AC50 cell viability in assay [2] of 20.9 µM.
With `COC[C@H]1OC(=O)C2=COC3=C2[C@@]1(C)\C4=C(C5CCC(=O)[C@@]5(C)C[C@H]4OC(C)=O)/C3=O` (some centres undefined) [17_-hydroxy Wortmannin], the efficacy in assay [1] is -43.9%. Besides, in assay [2], the AC50 cell viability amounted to 0.468 µM.
On to `CC1=CC=C2\N=C/3N(CC[C@@]3(O)C(=O)C2=C1)C4=CC=CC=C4` [(-)-Blebbistatin], for which the efficacy in assay [1] is -35.7%. The AC50 cell viability in assay [2] amounted to 0.132 µM.
As to `Cc1cc2c(C(C)C)c(O)c(O)c(C=O)c2c(O)c1-c1c(C)cc2c(C(C)C)c(O)c(O)c(C=O)c2c1O` [(-)-Gossypol], the efficacy in assay [1] is -115%. In addition, the AC50 cell viability in assay [2] came to 16.6 µM.
With `Cc1nc(NC(=O)N2CCC[C@H]2C(N)=O)sc1-c1csc(C(C)(C)C)n1` [A-66], the efficacy in assay [1] is -33%. Further, in assay [2], the AC50 cell viability came out at 1.86 µM.
As for `Nc1ncnc2nc(-c3ccc(N4CCOCC4)nc3)cc(-c3cccc(Br)c3)c12` [ABT-702], in assay [1], the efficacy is -53%. In assay [2], this compound registered an AC50 cell viability of 20.9 µM.
Turning to `CN(C)CC[C@H](CSc1ccccc1)Nc1ccc([S+](=O)([O-])NC(=O)c2ccc(N3CCN(Cc4ccccc4-c4ccc(Cl)cc4)CC3)cc2)cc1[N+](=O)[O-]` [ABT-737], the efficacy in assay [1] is -68.4%. The compound further displayed an AC50 cell viability in assay [2] of 20.9 µM.
In the case of `Cc1c(NC(=O)OC[C@@H]2COCCN2)cn2ncnc(Nc3ccc4c(cnn4Cc4cccc(F)c4)c3)c12` [AC-480], in assay [1], the efficacy was -82.6%. Also, the AC50 cell viability in assay [2] amounted to 20.9 µM.
Turning to `CC(=O)NC(C)c1ccc(Oc2ccc(OC(C)C)cc2)cc1` (centres undefined) [ACC1 BMS], in assay [1], the efficacy is -47.8%. The AC50 cell viability in assay [2] was determined as 17.1 µM.
As for `Cc1ccc(Nc2nnc(Cc3ccncc3)c3ccccc23)cc1Br` [ACC-789], in assay [1], the efficacy was -84.8%. In assay [2], this compound had an AC50 cell viability of 20.9 µM.
For `O=C(CCCCCCNC(=O)c1cnc(N(c2ccccc2)c2ccccc2Cl)nc1)NO` [ACY-241] the same measures were -86.2% and 5.9 µM.
For `O=C(NO)c1cnc(NC2(c3ccccc3)CC2)nc1` [ACY-738] the same measures were -79.1% and 3.32 µM.
For `O=C(NO)c1cnc(NC2(c3cccc(F)c3)CCCCC2)nc1` [ACY-775] the same measures were -75.6% and 16.6 µM.
On to `O=C(CCCCCCNC(=O)c1cnc(N(c2ccccc2)c2ccccc2)nc1)NO` [ACY-1215], for which the efficacy in assay [1] is -93.5%. Further, in assay [2], the AC50 cell viability was 7.42 µM.
With `Nc1ncnc2c1c(-c1cccc(OCc3ccccc3)c1)cn2[C@H]1C[C@H](CN2CCCC2)C1` [ADW-742], the efficacy in assay [1] was -84.3%. This compound displayed an AC50 cell viability in assay [2] of 16.6 µM.
Consider `CCN1CCN(Cc2ccc(-c3cc4c(N[C@H](C)c5ccccc5)ncnc4[nH]3)cc2)CC1` [AEE-788], for which, in assay [1], the efficacy is -97.5%. Besides, the AC50 cell viability in assay [2] came to 16.6 µM.
On to `CCOC(CN1C(=O)[C@](CC(=O)Nc2ccc(C)cc2)(NC(=O)Nc2ccc(C)cc2)c2ccccc21)OCC` [AG-041R], for which the efficacy in assay [1] is -78.5%. The same compound registered an AC50 cell viability in assay [2] of 23.5 µM.
With `CC(C)(C)c1cc(C=C(C#N)C#N)cc(Br)c1O` [AG-1024], the efficacy in assay [1] is -86.1%. For the same compound, the AC50 cell viability in assay [2] stood at 26.3 µM.
Consider `COc1cc2ncnc(Nc3cccc(Cl)c3)c2cc1OC` [AG-1478], for which the efficacy in assay [1] is -91.8%. In assay [2], this compound gave an AC50 cell viability of 23.5 µM.
